The values that follow come from patent publication US20020119917A1, “ANTI-INFLAMMATORY PEPTIDES DERIVED FROM C-REACTIVE PROTEIN” (priority 1996, published 2002).

What is called Ki is a measure of affinity in units of concentration, obtained from inhibition or displacement.

Starred links: 1 amine or outer side, 2 acyl side, 3 side chain; linkers in the order of their positions; H or OH if unused. Non-standard residues stand in square brackets, D forms with d. Residues, ends and D or L forms follow the SMILES beside them. No end group written: not given here. *: point of attachment. X1 = CC(C)C[C@H](NC(=O)[C@@H](N)CS*)C(=O)N[C@@H](Cc1c[nH]cn1)C(=O)N[C@@H](Cc1ccccc1)C(=O)O; NH(1-Adamantyl) = C1C2CC3CC1CC(N*)(C2)C3; MeOSuc = COC(=O)CCC(=O)*; Octanoyl = CCCCCCCC(=O)*; Cbz = O=C(OCc1ccccc1)*; CO = O=C([*:1])[*:2]; Ahx = NCCCCCC(=O)O; Sar = CNCC(=O)O

One assay deals with T1, human leukocyte cathepsin G (hCG) (Homo sapiens, UniProt P08311).
T1 construct: Neutrophils (1.4 billion) were isolated from whole blood obtained from a single healthy laboratory donor; from tissue; host or cells: neutrophils from whole blood of a single healthy donor
T1 sequence (P08311 21-244 limits assumed): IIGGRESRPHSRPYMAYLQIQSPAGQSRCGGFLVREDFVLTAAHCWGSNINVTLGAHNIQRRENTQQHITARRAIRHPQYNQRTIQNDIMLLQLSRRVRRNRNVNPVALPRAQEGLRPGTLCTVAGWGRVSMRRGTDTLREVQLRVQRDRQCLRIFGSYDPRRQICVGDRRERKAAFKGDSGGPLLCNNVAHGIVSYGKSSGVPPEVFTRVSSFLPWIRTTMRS
Description: In-vitro inhibition of hCG (conversion of Suc-AAPF-NA). The format is biochemical.
Conditions: not given
The procedure:
(§1) The enzymatic activity was assayed with MeOSuc-AAPV-NA for hLE determination and Suc-AAPF-NA for hCG determination (both in 100 mM Hepes buffer, pH 7.4, containing 0.05% of the […] detergent Brij-35). The activities of the individual enzymatic fractions were 100% free from cross-contamination. […] The fractions containing hLE and hCG were dialyzed each against 0.1% pyridinium acetate, pH 5.3, divided into 20 aliquots, lyophilized, and stored at −20° C. until use.
Similar conditions to hLE inhibition experiments ere used except the substrate: 80 μL of 1.8 mM Suc-AAPF-NA. The enzyme was issolved in 800 μL buffer, and the reaction was monitored every 6 min for 1 hour. The final volume was 240 μL containing: 5% DMSO, 1-500 μM peptide, 600 μM substrate, and 1.2 μg enzyme (about 40 picomol).
For hCG, V is determined by fitting a quadratic equation to the total kinetic data (60 min), using the least squares method and calculating V at t=0.
The inhibitory capability of several CRP-derived peptides was evaluated by inhibiting the enzymatic conversion of Suc-AAPF-NA (as described in Materials and Methods (vi) above).
Turning to `CC[C@H](C)[C@H](NC(=O)[C@H](Cc1c[nH]cn1)NC(=O)[C@@H](NC(=O)[C@@H]1CCCN1C(=O)[C@H](C)NC(=O)[C@@H](NC(=O)[C@@H](NC(=O)[C@@H](N)C(C)C)[C@@H](C)O)C(C)C)C(C)C)C(=O)N[C@@H](CSSC[C@H](N)C(=O)N[C@@H](CC(C)C)C(=O)N[C@@H](Cc1c[nH]cn1)C(=O)N[C@@H](Cc1ccccc1)C(=O)O)C(=O)O` [Peptide 4, Val89-Thr-Val-Ala-Pro-Val-His-Ile-Cys97-Cys36-His-Leu-Phe39] (H-VTVAPVHIC(X1)-OH), the “hCG inhibitory capability (in words)” value was “completely inactive”.

Regarding `CC[C@H](C)[C@H](NC(=O)[C@H](Cc1c[nH]cn1)NC(=O)[C@@H](NC(=O)[C@@H]1CCCN1C(=O)[C@H](C)NC(=O)[C@@H](NC(=O)[C@@H](NC(=O)[C@@H](NC(=O)[C@H](CCC(=O)O)NC(=O)[C@@H]1CCCN1C(=O)[C@@H](NC(=O)[C@H](CCC(=O)O)NC(=O)[C@H](Cc1ccccc1)NC(=O)[C@H](CC(C)C)NC(=O)[C@@H](NC(=O)[C@H](CCC(=O)O)NC(=O)[C@H](CO)NC(=O)CN)[C@@H](C)CC)C(C)C)C(C)C)[C@@H](C)O)C(C)C)C(C)C)C(=O)N[C@@H](CSSC[C@H](N)C(=O)N[C@@H](CC(C)C)C(=O)N[C@@H](Cc1c[nH]cn1)C(=O)N[C@@H](Cc1ccccc1)C(=O)O)C(=O)O` [Peptide 5, Gly79-Ser-Glu-Ile-Leu-Phe-Glu-Val-Pro-Glu-Val-Thr-Val-Ala-Pro-Val-His-Ile-Cys97-Cys36-His-Leu-Phe39] (H-GSEILFEVPEVTVAPVHIC(X1)-OH), the “hCG inhibitory capability (in words)” value is “completely inactive”.

Another assay has as its target T2, human leukocyte elastase (hLE) (Homo sapiens, UniProt P08246).
T2 construct: Neutrophils (1.4 billion) were isolated from whole blood obtained from a single healthy laboratory donor; from tissue; host or cells: neutrophils from whole blood of a single healthy donor
T2 sequence (P08246 30-247 limits assumed): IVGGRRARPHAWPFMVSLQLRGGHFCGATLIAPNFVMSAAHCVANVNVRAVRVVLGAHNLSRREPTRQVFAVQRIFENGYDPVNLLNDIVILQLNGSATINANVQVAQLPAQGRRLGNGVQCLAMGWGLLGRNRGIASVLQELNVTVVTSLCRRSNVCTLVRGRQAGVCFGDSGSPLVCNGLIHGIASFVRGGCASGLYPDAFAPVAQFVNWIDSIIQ
Description: In-vitro inhibition of hLE (cleavage of MeOSuc-AAPV-NA).
Conditions: not given
It counts as biochemical. The procedure: as §1
Peptides were dissolved in 100 mM Hepes buffer pH 7.4 containing 0.1% Brij-35 with 10% DMSO to yield 600 μM solutions, which were used to make further dilutions with the same buffer, and 80 μL aliquots were added in duplicates to 96-well plates. The substrate, 600 or 900 μM MeOSuc-AAPV-NA in the same buffer with 5% DMSO, was added to each well in addition to the blank wells, and the plate was placed in the plate reader equilibrated to 37° C. (Dynateck MR-6000). Lyophilized aliquots of hLE were dissolved in 1600 μL of 100 mM Hepes buffer without DMSO, and 80 μL of the enzyme solution was added to the peptides and substrate to initiate the reaction. […] The final volume was 240 μL containing: 5% DMSO, 1-200 μM of peptide, 200 μM substrate, and 0.75 μg (about 25 picomol) enzyme.
For hLE, V is determined by fitting a linear equation to the first 6 time-points (10 min) of the kinetics data using the least squares method. […] From calculating the error in the slope of the equation, the relative error for Ki was deduced:
Ki={slope*(1+[S]/Km)}^−1 because Ki=[I]*{(1+[S]/Km)*(Vo/Vi−1)}^−1.
The hLE inhibitory capability of CRP-derived peptides was evaluated by inhibiting the enzymatic cleavage of MeOSuc-AAPV-NA as described in Materials and Methods (section v).
In the case of `CC[C@H](C)[C@H](NC(=O)[C@H](Cc1c[nH]cn1)NC(=O)[C@@H](NC(=O)[C@@H]1CCCN1C(=O)[C@H](C)NC(=O)[C@@H](NC(=O)[C@@H](NC(=O)[C@@H](NC(=O)CCC(=O)OC)C(C)C)[C@@H](C)O)C(C)C)C(C)C)C(=O)O` [Peptide 15, MeOSuc-Val89-Thr-Val-Ala-Pro-Val-His-Ile96] (MeOSuc-VTVAPVHI-OH), the affinity corresponds to a Ki of 160 ± 30 µM.

As to `CC[C@H](C)[C@H](NC(=O)[C@H](Cc1c[nH]cn1)NC(=O)[C@@H](NC(=O)[C@@H]1CCCN1C(=O)[C@H](C)NC(=O)[C@@H](NC(=O)[C@@H](NC(=O)[C@@H](NC(=O)NC12CC3CC(CC(C3)C1)C2)C(C)C)[C@@H](C)O)C(C)C)C(C)C)C(=O)O` [Peptide 17, Adamantyl-NH-CO-Val89-Thr-Val-Ala-Pro-Val-His-Ile96] ({NH(1-Adamantyl)-CO}-VTVAPVHI-OH), the inhibition constant (Ki) is 130 ± 15 µM.

Molecule `CCCCCCCC(=O)N[C@H](C(=O)N[C@H](C(=O)N[C@H](C(=O)N[C@@H](C)C(=O)N1CCC[C@H]1C(=O)N[C@H](C(=O)N[C@@H](Cc1c[nH]cn1)C(=O)N[C@H](C(=O)O)[C@@H](C)CC)C(C)C)C(C)C)[C@@H](C)O)C(C)C` [Peptide 19, Octanoyl-Val89-Thr-Val-Ala-Pro-Val-His-Ile96] (Octanoyl-VTVAPVHI-OH) showed a Ki of 280 ± 25 µM.

`CC[C@H](C)[C@H](NC(=O)[C@H](Cc1c[nH]cn1)NC(=O)[C@@H](NC(=O)[C@@H]1CCCN1C(=O)[C@H](C)NC(=O)[C@@H](NC(=O)[C@@H](NC(=O)[C@@H](NC(=O)OCc1ccccc1)C(C)C)[C@@H](C)O)C(C)C)C(C)C)C(=O)O` [Peptide 20, CBz-Val89-Thr-Val-Ala-Pro-Val-His-Ile96] (Cbz-VTVAPVHI-OH): affinity was put at a Ki of 165 ± 35 µM.

As to `CC[C@H](C)[C@H](NC(=O)[C@H](Cc1c[nH]cn1)NC(=O)[C@@H](NC(=O)[C@@H]1CCCN1C(=O)[C@H](C)NC(=O)[C@@H](NC(=O)[C@@H](NC(=O)[C@@H](NC(=O)CCCCCNC(C)=O)C(C)C)[C@@H](C)O)C(C)C)C(C)C)C(=O)O` [Peptide 22, Acetyl-aminocaproyl-Val89-Thr-Val-Ala-Pro-Val-His-Ile96] (Ac-[Ahx]VTVAPVHI-OH), the Ki was 210 ± 30 µM.

`CC[C@H](C)[C@H](NC(=O)[C@H](Cc1c[nH]cn1)NC(=O)[C@@H](NC(=O)[C@H]1CCCN1C(=O)[C@H](C)NC(=O)[C@@H](NC(=O)[C@@H](NC(=O)[C@@H](N)C(C)C)[C@@H](C)O)C(C)C)C(C)C)C(=O)O` [Peptide 27, Val89-Thr-Val-Ala-(D)Pro-Val-His-Ile96] (H-VTVA[dP]VHI-OH; N-terminus and C-terminus assumed) yielded a Ki of 560 ± 170 µM.

`CC[C@H](C)[C@H](NC(=O)[C@@H](Cc1c[nH]cn1)NC(=O)[C@H](NC(=O)[C@H]1CCCN1C(=O)[C@H](C)NC(=O)[C@@H](NC(=O)[C@@H](NC(=O)[C@@H](N)C(C)C)[C@@H](C)O)C(C)C)C(C)C)C(=O)O` [Peptide 28, Val89-Thr-Val-Ala-(D)Pro-(D)Val-(D)His-Ile96] (H-VTVA[dP][dV][dH]I-OH; N-terminus and C-terminus assumed) returned a Ki of 2300 ± 300 µM.

For `CC[C@H](C)[C@H](NC(=O)[C@H](Cc1c[nH]cn1)NC(=O)[C@@H](NC(=O)CN(C)C(=O)[C@H](C)NC(=O)[C@@H](NC(=O)[C@@H](NC(=O)[C@@H](N)C(C)C)[C@@H](C)O)C(C)C)C(C)C)C(=O)O` [Peptide 30, Val89-Thr-Val-Ala-Sarcosine-Val-His-Ile96] (H-VTVA[Sar]VHI-OH; N-terminus and C-terminus assumed), the “hLE inhibitory capability (in words)” value is given as “almost completely lost”.

Regarding “Asn160-Met-Trp-Asp-Phe-Val165 [reference compound]”, the “hLE inhibitory capability (in words)” value was “No significant inhibition”.

As for “Asp70-Ile-Gly-Tyr-Ser74 [reference compound]”, the “hLE inhibitory capability (in words)” value is “No significant inhibition”.

Take “Asp112-Gly-Lys-Pro-Arg-Val-Arg-Lys119 [reference compound]”: the “hLE inhibitory capability (in words)” value is recorded as “No significant inhibition”.

Take “Gln203-Leu-Trp-Pro206 [reference compound]”: the “hLE inhibitory capability (in words)” value was “No significant inhibition”.

Regarding “Phe84-Glu-Val-Pro-Glu-Val-Thr90 [reference compound]”, the “hLE inhibitory capability (in words)” value is “No significant inhibition”.

Consider “Ser18-Tyr-Val-Ser-Leu-Lys23 [reference compound]”, for which the “hLE inhibitory capability (in words)” value is recorded as “No significant inhibition”.

Turning to “Thr76-Val-Gly-Gly-Ser80 [reference compound]”, the “hLE inhibitory capability (in words)” value is on record as “No significant inhibition”.

“Thr200-Lys-Pro-Gln-Leu-Trp-Pro206 [reference compound]”: the “hLE inhibitory capability (in words)” value is “No significant inhibition”.

“VTVAPVHIP-NH2 [Peptide 12, Val89-Thr-Val-Ala-Pro-Val-His-Ile96-Pro-NH2]” came in with an inhibition constant (Ki) of 70 ± 5 µM.

Consider “VTVAPVHIPP-NH2 [Peptide 14, Val89-Thr-Val-Ala-Pro-Val-His-Ile96-Pro-Pro-NH2]”, for which the inhibitory constant (Ki) came to 85 ± 10 µM.

On to “Val153-Gly-Asp-Ile-Gly-Asn-Val159 [reference compound]”, for which the “hLE inhibitory capability (in words)” value was “No significant inhibition”.

Regarding “Val-Ala-Pro-Val (VAPV; printed: Val-Ala-Pro-Val) [reference compound]”, the “hLE inhibitory capability (in words)” value was “minute”.

The same assay, now with this note: substrate MeOSuc-AAPV-NA, 100 mM Hepes pH 7.4, 37° C.; read-out: hLE Ki.
Regarding `CC[C@H](C)[C@H](NC(=O)[C@H](Cc1c[nH]cn1)NC(=O)[C@@H](NC(=O)CN(C)C(=O)[C@H](C)NC(=O)[C@@H](NC(=O)[C@@H](NC(=O)[C@@H](N)C(C)C)[C@@H](C)O)C(C)C)C(C)C)C(=O)O` [Peptide 30, Val89-Thr-Val-Ala-Sarcosine-Val-His-Ile96] (H-VTVA[Sar]VHI-OH; N-terminus and C-terminus assumed), the inhibition constant Ki was determined as 1400 ± 500 µM.

On to “LEAIPMSI [Peptide 24, Leu-Glu-Ala-Ile-Pro-Met-Ser-Ile, reference compound]”, for which the inhibitory constant (Ki) came to 350 ± 70 µM.

Take “VAPVHI [Peptide 26, Val91-Ala-Pro-Val-His-Ile96]”: the inhibitory constant (Ki) was 1000 ± 250 µM.

For the molecule “VTVAPV [Peptide 25, Val89-Thr-Val-Ala-Pro-Val94]”, the Ki stood at 900 ± 300 µM.

Regarding “VTVAPVSI [Peptide 9, Val89-Thr-Val-Ala-Pro-Val-Ser-Ile96]”, the Ki was 200 ± 20 µM.
